Values of other authors as cited in patent US20220401441A1, “PHARMACEUTICAL COMPOSITION COMPRISING SELEXIPAG” (ACTELION PHARMACEUTICALS LTD, priority 2019, published 2022).

System: patients with pulmonary arterial hypertension
Conditions: selexipag versus placebo

SMILES: CC(C)N(CCCCOCC(=O)NS(C)(=O)=O)c1cnc(-c2ccccc2)c(-c2ccccc2)n1 [selexipag, 2-{4-[N-(5,6-diphenylpyrazin-2-yl)-N-isopropylamino]butyloxy}-N-(methylsulfonyl)acetamide]
- risk of the primary composite end point of death or a complication related to pulmonary arterial hypertension: significantly lower
